PMC8514546, “Structural basis of the P4B ATPase lipid flippase activity” (Nature Communications, 2021)

Experiments:
Neo1 [1] = target: T1, Neo1 (Saccharomyces cerevisiae, UniProt P40527); test: cryo-EM structure, […] Å; assay type: binding; settings: E1-ATP state; AMPPCP at the N and P domain interface; 1 mM (Results) or 2 mM (Methods) AMPPCP, 5 mM MgCl2
T1 construct: full length (1151 residues), N-terminal triple FLAG tag, overexpressed in S. cerevisiae from pRS423 with GAP promoter; monomer, purified in LMNG/CHS
T1 sequence (P40527 1-1151): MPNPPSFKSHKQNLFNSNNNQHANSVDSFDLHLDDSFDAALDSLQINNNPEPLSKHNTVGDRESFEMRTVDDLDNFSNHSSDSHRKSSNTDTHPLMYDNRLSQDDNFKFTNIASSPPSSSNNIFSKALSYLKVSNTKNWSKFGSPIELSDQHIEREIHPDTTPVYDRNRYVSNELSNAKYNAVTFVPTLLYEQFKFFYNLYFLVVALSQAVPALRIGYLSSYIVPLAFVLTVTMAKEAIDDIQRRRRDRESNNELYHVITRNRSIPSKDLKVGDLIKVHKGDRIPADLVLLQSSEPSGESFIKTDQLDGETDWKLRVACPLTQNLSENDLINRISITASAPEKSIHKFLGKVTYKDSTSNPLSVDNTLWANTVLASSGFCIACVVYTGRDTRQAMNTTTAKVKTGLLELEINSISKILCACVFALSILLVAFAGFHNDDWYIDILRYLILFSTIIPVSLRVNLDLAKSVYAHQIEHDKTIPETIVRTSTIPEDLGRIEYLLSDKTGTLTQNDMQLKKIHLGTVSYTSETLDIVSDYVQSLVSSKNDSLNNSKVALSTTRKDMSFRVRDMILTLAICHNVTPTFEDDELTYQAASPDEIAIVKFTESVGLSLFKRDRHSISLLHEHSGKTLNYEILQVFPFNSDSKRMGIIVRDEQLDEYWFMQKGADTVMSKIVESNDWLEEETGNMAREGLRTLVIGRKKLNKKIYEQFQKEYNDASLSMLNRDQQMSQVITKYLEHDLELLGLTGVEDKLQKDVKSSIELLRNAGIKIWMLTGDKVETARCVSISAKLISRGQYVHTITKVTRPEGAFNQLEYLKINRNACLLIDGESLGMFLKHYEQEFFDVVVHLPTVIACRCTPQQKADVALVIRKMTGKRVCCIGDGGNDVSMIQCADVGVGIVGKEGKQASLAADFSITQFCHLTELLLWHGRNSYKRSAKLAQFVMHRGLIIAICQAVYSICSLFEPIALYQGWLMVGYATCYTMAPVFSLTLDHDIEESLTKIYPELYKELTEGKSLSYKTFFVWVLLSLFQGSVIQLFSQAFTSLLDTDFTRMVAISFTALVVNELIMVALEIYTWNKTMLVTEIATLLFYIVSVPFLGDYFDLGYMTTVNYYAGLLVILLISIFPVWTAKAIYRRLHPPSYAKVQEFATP

Neo1 [2] = target: T1, Neo1; test: lipid-stimulated ATP hydrolysis, released phosphate by BIOMOL Green; assay type: biochemical; settings: 0.25 mM ATP, 10 mM MgCl2, pH 7.4, 37 °C, LMNG/CHS, lipid in cholate; transport substrate, acyl chain not stated

Compound: Nc1ncnc2c1ncn2[C@@H]1O[C@H](COP(=O)(O)OP(=O)(O)CP(=O)(O)O)[C@@H](O)[C@H]1O [AMPPCP]
- cryo-EM structure, 5.6 Å (Neo1 [1]): the AMPPCP density is clear and the molecule stabilizes the interface between the N and P domains

Compound: lyso-PS
- Km (Neo1 [2]): 50.3 ± 8.8 µM
